Data from patent US12168805B2, “Methods and reagents for detecting piperaquine-resistant plasmodium falciparum malaria” (priority 2016, dated 2024).

Legend:
[1] = tested on: culture-adapted P. falciparum parasite lines; assay: in-vitro Piperaquine Survival Assay (PSA) on culture-adapted parasites; format: cell-based, Plasmodium falciparum; settings: for in-vitro PSA survival rate (%): 200 nM PPQ for 48 hours
Experimental: (§1) Cryopreserved parasites were culture-adapted as described.^12 Susceptibility to PPQ was investigated using in-vitro PSA for culture-adapted parasites and ex-vivo PSA for fresh isolates. Survival rates were assessed microscopically and parasites with a survival rate ≥10% were considered PPQ-resistant.^7 msp1, msp2 and glurp polymorphisms were determined to distinguish recrudescent from new infections.^13 Sequencing of the K13-propeller domain was used to screen for ART-resistance.^1 Whole-genome sequencing was performed using Illumina paired-reads sequencing.^1 Data were integrated into the Whole-genome Data Manager (WDM) database^14 and exomes of PPQ-resistant and -sensitive lines were compared after excluding low-coverage positions (i.e., lower than 25% of the genome-wide mean coverage). Genes from highly variable multigene families (var, rifin, phist and stevor) were excluded.^1 CNVs and SNPs were investigated using PlasmoCNVScan and Phen2gen software (see below). 1+PfPM2 and Pfmdr1 copy number was determined by qPCR (see below). Steady-state PfPM2 mRNA levels were measured by RT-qPCR (see below) and PfPM2 protein expression by immunoblotting (see below).
In-vitro susceptibility to PPQ was investigated using the in-vitro or the ex-vivo PSA, which is based on exposing very early ring-stage parasites to 200 nM PPQ for 48 hours, washing away the drug, and assessing parasite growth after a further 24 hours of culture. Survival rates at the 72 hour time point were assessed microscopically by counting the proportion of viable parasites in exposed and non-exposed cultures that developed into second-generation rings or trophozoites with normal morphology. Parasites with a survival rate ≥10% were considered PPQ-resistant.^5

[2] = tested on: freshly collected P. falciparum patient isolates; assay: ex-vivo Piperaquine Survival Assay (PSA) on fresh isolates; format: cell-based, Plasmodium falciparum
Experimental: Blood samples were collected into acid-citrate-dextrose tubes (Becton-Dickinson, USA) before treatment and sent to Institut Pasteur in Cambodia within 24 hours. A sub-set of freshly collected samples was used to perform the ex-vivo PSA.^7 All samples were cryopreserved in glycerolyte. Red cell pellets were stored at −20° C. for molecular studies. Blood spots were prepared on day 0 and when applicable on the day of recrudescence.
as §1, with “Genes from highly variable multigene families (var, rifin, phist and stevor) were excluded.^1 CNVs and SNPs were investigated using PlasmoCNVScan and Phen2gen software (see below).” left out, “Steady-state PfPM2 mRNA levels were measured by RT-qPCR (see below) and PfPM2 protein expression by immunoblotting (see below).” left out

## Clc1ccc2c(N3CCN(CCCN4CCN(c5ccnc6cc(Cl)ccc56)CC4)CC3)ccnc2c1 [PPQ, piperaquine]
[1]; 3D7 reference line
  in-vitro susceptibility to PPQ: Sensitive (sensitive if survival rates were <10%)
[1]; 3D7 reference line, survival at 72 hour
  in-vitro PSA survival rate (%): 0.1%
[1]; one sequence with DNA expansion type 3
  In-vitro PSA survival rate, PSA mean value: 39.3%
[1]; parasite line 6218
  in-vitro susceptibility to PPQ: Resistant (resistant if survival rates were ≥10%)
[1]; parasite line 6218 (2012, Battambang)
  in-vitro PSA survival rate (%): 40.8%
[1]; parasite line 6219
  in-vitro susceptibility to PPQ: Resistant (resistant if survival rates were ≥10%)
[1]; parasite line 6219 (2012, Battambang)
  in-vitro PSA survival rate (%): 58.6%
[1]; parasite line 6224
  in-vitro susceptibility to PPQ: Resistant (resistant if survival rates were ≥10%)
[1]; parasite line 6224 (2012, Pursat)
  in-vitro PSA survival rate (%): 61.4%
[1]; parasite line 6229
  in-vitro susceptibility to PPQ: Resistant (resistant if survival rates were ≥10%)
[1]; parasite line 6229 (2012, Battambang)
  in-vitro PSA survival rate (%): 46.6%
[1]; parasite line 6237
  in-vitro susceptibility to PPQ: Sensitive (sensitive if survival rates were <10%)
[1]; parasite line 6237 (2012, Kampong Thom)
  in-vitro PSA survival rate (%): 0.8%
[1]; parasite line 6246
  in-vitro susceptibility to PPQ: Resistant (resistant if survival rates were ≥10%)
[1]; parasite line 6246 (2012, Kampong Speu)
  in-vitro PSA survival rate (%): 36.9%
[1]; parasite line 6261
  in-vitro susceptibility to PPQ: Resistant (resistant if survival rates were ≥10%)
[1]; parasite line 6261 (2012, Pursat)
  in-vitro PSA survival rate (%): 70.5%
[1]; parasite line 6267
  in-vitro susceptibility to PPQ: Sensitive (sensitive if survival rates were <10%)
[1]; parasite line 6267 (2012, Kampong Speu)
  in-vitro PSA survival rate (%): 0.5%
[1]; parasite line 6272
  in-vitro susceptibility to PPQ: Resistant (resistant if survival rates were ≥10%)
[1]; parasite line 6272 (2012, Battambang)
  in-vitro PSA survival rate (%): 40.0%
[1]; parasite line 6273
  in-vitro susceptibility to PPQ: Sensitive (sensitive if survival rates were <10%)
[1]; parasite line 6273 (2012, Kampong Speu)
  in-vitro PSA survival rate (%): 0.2%
[1]; parasite line 6280
  in-vitro susceptibility to PPQ: Resistant (resistant if survival rates were ≥10%)
[1]; parasite line 6280 (2012, Battambang)
  in-vitro PSA survival rate (%): 28.9%
[1]; parasite line 6293
  in-vitro susceptibility to PPQ: Resistant (resistant if survival rates were ≥10%)
[1]; parasite line 6293 (2012, Battambang)
  in-vitro PSA survival rate (%): 39.3%
[1]; parasite line 6302
  in-vitro susceptibility to PPQ: Resistant (resistant if survival rates were ≥10%)
[1]; parasite line 6302 (2012, Battambang)
  in-vitro PSA survival rate (%): 42.5%
[1]; parasite line 6320
  in-vitro susceptibility to PPQ: Resistant (resistant if survival rates were ≥10%)
[1]; parasite line 6320 (2012, Battambang)
  in-vitro PSA survival rate (%): 62.1%
[1]; parasite line 6337
  in-vitro susceptibility to PPQ: Sensitive (sensitive if survival rates were <10%)
[1]; parasite line 6337 (2012, Kampong Speu)
  in-vitro PSA survival rate (%): 0.4%
[1]; parasite line 6341
  in-vitro susceptibility to PPQ: Resistant (resistant if survival rates were ≥10%)
[1]; parasite line 6341 (2012, Pursat)
  in-vitro PSA survival rate (%): 25.8%
[1]; parasite line 6349
  in-vitro susceptibility to PPQ: Sensitive (sensitive if survival rates were <10%)
[1]; parasite line 6349 (2012, Kampong Thom)
  in-vitro PSA survival rate (%): 0.6%
[1]; parasite line 6365
  in-vitro susceptibility to PPQ: Resistant (resistant if survival rates were ≥10%)
[1]; parasite line 6365 (2012, Battambang)
  in-vitro PSA survival rate (%): 51.8%
[1]; parasite line 6369
  in-vitro susceptibility to PPQ: Sensitive (sensitive if survival rates were <10%)
[1]; parasite line 6369 (2012, Pursat)
  in-vitro PSA survival rate (%): 6.4%
[1]; parasite line 6391
  in-vitro susceptibility to PPQ: Resistant (resistant if survival rates were ≥10%)
[1]; parasite line 6391 (2012, Battambang)
  in-vitro PSA survival rate (%): 39.4%
[1]; parasite line 6394
  in-vitro susceptibility to PPQ: Resistant (resistant if survival rates were ≥10%)
[1]; parasite line 6394 (2012, Battambang)
  in-vitro PSA survival rate (%): 56.7%
[1]; parasite line 6395
  in-vitro susceptibility to PPQ: Resistant (resistant if survival rates were ≥10%)
[1]; parasite line 6395 (2012, Battambang)
  in-vitro PSA survival rate (%): 19.2%
[1]; parasite line 6403
  in-vitro susceptibility to PPQ: Sensitive (sensitive if survival rates were <10%)
[1]; parasite line 6403 (2012, Pursat)
  in-vitro PSA survival rate (%): 0.5%
[1]; parasite line 6408
  in-vitro susceptibility to PPQ: Resistant (resistant if survival rates were ≥10%)
[1]; parasite line 6408 (2012, Battambang)
  in-vitro PSA survival rate (%): 58.7%
[1]; parasite line 6410
  in-vitro susceptibility to PPQ: Sensitive (sensitive if survival rates were <10%)
[1]; parasite line 6410 (2012, Battambang)
  in-vitro PSA survival rate (%): 6.0%
[1]; parasite line 6411
  in-vitro susceptibility to PPQ: Resistant (resistant if survival rates were ≥10%)
[1]; parasite line 6411 (2012, Battambang)
  in-vitro PSA survival rate (%): 71.6%
[1]; parasite line 6427
  in-vitro susceptibility to PPQ: Resistant (resistant if survival rates were ≥10%)
[1]; parasite line 6427 (2012, Battambang)
  in-vitro PSA survival rate (%): 77.4%
[1]; parasite line 6429
  in-vitro susceptibility to PPQ: Resistant (resistant if survival rates were ≥10%)
[1]; parasite line 6429 (2012, Pursat)
  in-vitro PSA survival rate (%): 51.8%
[1]; parasite line 6430
  in-vitro susceptibility to PPQ: Resistant (resistant if survival rates were ≥10%)
[1]; parasite line 6430 (2012, Battambang)
  in-vitro PSA survival rate (%): 51.3%
[1]; parasite line 6431
  in-vitro susceptibility to PPQ: Resistant (resistant if survival rates were ≥10%)
[1]; parasite line 6431 (2012, Battambang)
  in-vitro PSA survival rate (%): 61.5%
[1]; parasite line 6443
  in-vitro susceptibility to PPQ: Resistant (resistant if survival rates were ≥10%)
[1]; parasite line 6443 (2012, Battambang)
  in-vitro PSA survival rate (%): 49.6%
[1]; parasites harboring DNA expansion type 1 (N=13)
  In-vitro PSA survival rate, PSA mean value: 44.8%
[1]; parasites harboring DNA expansion type 2 (N=6)
  In-vitro PSA survival rate, PSA mean value: 64.9%
[1]; parasites harboring DNA expansion type 4 (N=2)
  In-vitro PSA survival rate, PSA mean value: 16.2%
[2]; isolates with unamplified (single copy) PfPM2
  median ex-vivo PSA survival rate: 0.004%
[2]; isolates with ≥2 PfPM2 copies
  median ex-vivo PSA survival rate: 51.7%
